Source: patent US12496303B2, “Conditioning agents for use in allogeneic hematopoietic stem cell transplantation” (priority 2020, dated 2025)

How the values were obtained:
[1] = MHC-mismatched haploidentical allo-HSCT (CB6F1→B6); assay type: in vivo, mouse
Description: (§1) To investigate the efficacy of ADCs for allo-HSCT conditioning, two transplant models were used (see e.g., FIG. 2A): a miHA-mismatched BALB/c-Ly5.1→DBA/2 model and a haploidentical CB6F1→B6 (F1-to-parent) model MHC-mismatched for H-2d in the host-versus-graft direction. CD45-SAP was chosen for conditioning in these studies to leverage its lymphodepleting activity to overcome graft rejection.
(§2) Mice were injected with CD45-SAP or cKit-SAP at doses indicated in each figure at 7 days pre-transplant (d-7). In general, 3 mg/kg (75 μg) CD45-SAP, and 0.4 mg/kg or 2 mg/kg (10 or 50 μg, respectively) cKit-SAP were used. On transplant day (d0), mice received 10×10^6 whole donor bone marrow cells via the retroorbital injection.
(§3) CD4^+ and CD8^+ T cell depletion was done using clones GK1.5 and YTS169.4, respectively, and NK cell depletion done using clone PK136. […] All antibodies were administered intraperitoneally at 250 μg per dose following the schema for each experiment.
(§4) Immediately prior to injection, these DMSO stocks were thawed, diluted 1:10 in PBS, and injected at 200 μl/mouse subcutaneously (400 μg daily dose).
ALZET subcutaneous osmotic pumps (Model 2004) were used to continuously deliver JAK1/2 inhibitors to mice for 28 days at a rate of 0.25 μL/hour (6 μL/day). A vehicle of 50% dimethyl sulfoxide (DMSO)/50% polyethylene glycol 400 (PEG-400) was used for all experiments. JAK1/2 inhibitors were prepared at 2× concentration (133.3 mg/mL) in 100% DMSO then diluted to 1× with an equal volume of PEG-400 (66.7 mg/mL, 400 μg total daily dose). Prepared compounds were then loaded into osmotic pumps per the manufacturer's instructions and surgically implanted in accordance with our IACUC-approved protocol.

[2] = system: NK cell-mediated rejection; test: parent-to-F1 allo-HSCT (B6→CB6F1), NK cell-mediated rejection; assay type: in vivo, mouse; conditions: CD45-SAP plus baricitinib
Description: as §2, §3, §4

[3] = solubility testing of baricitinib in osmotic pump vehicles; assay type: physicochemical
[4] = miHA-mismatched allo-HSCT (BALB/c-Ly5.1→DBA/2); assay type: in vivo, mouse; conditions: CD45-SAP conditioning plus daily baricitinib
Description: as §1, §2, §3, §4

[5] = system: αCD3-stimulated B6 T cells; test: αCD3-stimulated CFSE-labeled T cell culture; assay type: cell-based, mouse; conditions: 72 hours, highest tested dose
Description: FIG. 4A-FIG. 4E. […] (B) Donor chimerism in spleen and bone marrow of mice from panel (A). […] (D) Proliferation and viability of cultures in (C). (E) Cytokines present in supernatants collected from cultures described in (C) after 24 hours incubation. For (C-E), data from three technical replicates are shown from one representative of four experiments. For all panels, data points and error bars represent mean±SEM.
For ex vivo stimulation of primary mouse T cells, 1×10^5 T cells purified from spleen and lymph nodes with the EasySep Mouse T cell Isolation Kit (Stem Cell Technologies; Vancouver, BC, Canada) were cultured with 4×10^5 T-depleted splenocytes in 96-well round bottom plates in R10 media with 1 μg/mL αCD3. Supernatants were collected for cytokine analysis after 24 hours incubation, and cultured cells were analyzed for expansion by flow cytometry at 72 hours.
Cytokine concentrations in culture supernatant or mouse plasma were measured with the LegendPLEX Inflammation Panel (13-plex) or the Mouse Th1 Panel (5-plex) per the manufacturer protocols (BioLegend). Quantification was done using LegendPLEX software v8.0 for Windows. If a cytokine concentration was too low to be quantified, the sample was assigned the value of the lower limit of quantitation. […]

[6] = acute effects of four days daily baricitinib on blood and lymphoid organs; assay type: in vivo, B6 mice
From the text: FIG. 16A-FIG. 16G. […] The color scheme in the legend (upper-right) is used throughout the figure. (A and B) Complete blood counts (A) and organ cellularity of spleen and bone marrow (B). (C) Proportions of HSPC subsets in bone marrow. (D) Absolute B, T, and myeloid (Gr1+ and/or CD11b+) cell counts in spleen, blood, and bone marrow. (E) Frequencies of FoxP3+ Tregs (relative to total CD4+ T cells) in spleen, blood and bone marrow. (F and G) Cell surface phenotyping of splenic T cells (F) and APCs (G). Data points and error bars represent mean±SEM, with mice pooled across 3 experiments. For statistical comparison: ns=not significant, * is p<0.05, ** is p<0.01, *** is p<0.001, and **** is p<0.0001.
as §4

[7] = fully MHC-mismatched allo-HSCT (BALB/c→B6), preliminary; assay type: in vivo, mouse; conditions: continuous baricitinib plus CD45-SAP conditioning, preliminary (not shown)
From the text: Continued optimization of our conditioning regimens aims to achieve robust, high-level engraftment in fully haploidentical (F1-to-F1) and fully MHC-mismatched allo-HSCT.

[8] = system: IL-15-stimulated B6 splenic NK cells; test: functional assays of cytokine-stimulated splenic NK cells; assay type: cell-based, mouse
Description: FIG. 5A-FIG. 5H. […] Data points and error bars represent mean±SEM.
Cytokine concentrations in culture supernatant or mouse plasma were measured with the LegendPLEX Inflammation Panel (13-plex) or the Mouse Th1 Panel (5-plex) per the manufacturer protocols (BioLegend). Quantification was done using LegendPLEX software v8.0 for Windows. If a cytokine concentration was too low to be quantified, the sample was assigned the value of the lower limit of quantitation. For intracellular IFNγ analysis of splenic NK cells, cells were cultured in K10 media with or without cytokine stimulation for 15 hours, with 5 μg/mL Brefeldin A (BioLegend) added to each well for the last 2.5 hours. After this incubation period, cells were fixed, saponin-permeabilized, and stained as described above.

[9] = minor- and major-mismatched alloHSCT models, summary statements; assay type: in vivo, mouse
From the text: This example describes the combination of JAK1/JAK2 (JAK1/2) inhibitors and CD45-ADC.

[10] = CD45-ADC single dose d-7 plus baricitinib for 3-4 weeks

CCS(=O)(=O)N1CC(CC#N)(n2cc(-c3ncnc4[nH]ccc34)cn2)C1 [baricitinib]
overall donor chimerism ([1]; CD45-SAP plus continuously-infused baricitinib (osmotic pump, 400 μg daily)): > 80% | overall donor chimerism ([1]; CD45-SAP, daily baricitinib and pre-transplant pan-TCD): > 90% | engraftment rate ([1]; continuous baricitinib plus CD45-SAP): ~70% | overall donor chimerism [2]: ~60% | solubility ([3]; DMSO mixed 1:1 with PEG-400): readily soluble | solubility after incubation ([3]; DMSO/PEG-400 vehicle, 30-day incubation at 37° C.): remained soluble | overall multilineage donor chimerism of engrafted mice [4]: ~80% | cell death in unstimulated cultures [5]: only subtly increased | immunophenotyping of splenic T cell and APC compartments ([6]; baricitinib- vs vehicle-treated): no differences | B cells in spleens ([6]; daily baricitinib 4 days): lower frequencies of B cells | CBCs or bone marrow cellularity ([6]; daily baricitinib 4 days): minimally affected | bone marrow HSPC numbers ([6]; daily baricitinib 4 days): largely unaffected | spleen cellularity ([6]; daily baricitinib 4 days): significant reduction | frequencies of long-term HSC and megakaryocyte-erythroid progenitors ([6]; daily baricitinib 4 days, bone marrow): somewhat lower frequencies | engraftment success [7]: ~25% | nonspecific toxicity in unstimulated NK cultures [8]: modest and noted only at the highest baricitinib doses | donor chimerism [9, 10]: up to 90% | share of treated mice achieving the donor chimerism [9, 10]: at least 70 % of the mice | donor chimerism, multilineage alloengraftment ([9]; CD45-targeted ADCs combined with baricitinib): 80-90%
